Where two headings read alike, the source gives them in different places.

In one assay the target is IRAK4 (Homo sapiens (Human), UniProt Q9NWZ3). The assay is described as follows: IRAK4 Inhibition Assay. Format: biochemical. The following applies: ATP 500 μM; IRAK4 0.6 nM; 60 min at room temperature. The protocol:
The assays were performed in U-bottom 384-well plates. […] The reaction was initiated by the combination of IRAK4 with substrates and test compounds. The reaction was incubated at room temperature for 60 min. and terminated by adding 45 μL of 35 mM EDTA to each sample. The reaction mixture was analyzed on the Caliper LABCHIP® 3000 (Caliper, Hopkinton, Mass.) by electrophoretic separation of the fluorescent substrate and phosphorylated product.

In assay [1] the test system is TLR2 induced IL-6 in peripheral blood mononuclear cells (PBMCs). Kind of assay: PBMC TLR2 Induced IL-6 Assay. The class given is cell-based, human. To be noted: human PBMCs, 10 μg/ml lipoteichoic acid for 5 hours, IL-6 by ELISA, value without asterisk, read-out: Cell IC50. Put shortly:
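Human PBMCs (250000 cells/well) in RPMI with 10% heat-inactivated FCS pre-treated with compound for 30 min at 37° C, then stimulated 5 h with 10 μg/ml lipoteichoic acid. Supernatant IL-6 measured by ELISA and reported as IC50 or EC50.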

Chain of IRAK4 (Q9NWZ3 whole entry, species assumed): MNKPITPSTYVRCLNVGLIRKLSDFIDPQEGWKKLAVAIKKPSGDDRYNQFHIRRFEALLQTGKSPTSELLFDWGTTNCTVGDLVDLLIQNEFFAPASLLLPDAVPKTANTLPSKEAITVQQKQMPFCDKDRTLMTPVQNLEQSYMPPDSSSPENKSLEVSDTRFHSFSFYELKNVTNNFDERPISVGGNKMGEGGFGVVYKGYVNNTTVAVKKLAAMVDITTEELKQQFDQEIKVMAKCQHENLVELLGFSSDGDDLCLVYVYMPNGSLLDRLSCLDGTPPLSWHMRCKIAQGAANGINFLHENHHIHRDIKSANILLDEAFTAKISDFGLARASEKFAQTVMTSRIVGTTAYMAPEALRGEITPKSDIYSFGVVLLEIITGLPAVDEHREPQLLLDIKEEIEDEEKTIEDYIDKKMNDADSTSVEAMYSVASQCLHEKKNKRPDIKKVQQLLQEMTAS

Turning to `CC(C)(O)[C@H](F)CNC(=O)c1cnc(Nc2ncc3ncccc3n2)cc1NC1CCOCC1` [Example 371], the IC50 on IRAK4 worked out at 6 nM; in assay [1] (Homo sapiens, PBMC, 5 h), 604 nM.
With `CC(C)(F)CNc1cc(Nc2ccc3ncc(C#N)cc3n2)ncc1C(=O)NC[C@@H](F)C(C)(C)O` [Example 373], the IC50 at IRAK4 amounted to 5.1 nM; in assay [1] (Homo sapiens, PBMC, 5 h), 431 nM.
For `CC(C)Nc1cc(Nc2ccc3ncc(Cl)cc3n2)ncc1C(=O)NC[C@@H](F)C(C)(C)O` [Example 374] the same measures were 3.1 nM and 271 nM.
The matching figures for `CC(C)(O)[C@H](F)CNC(=O)c1cnc(Nc2ccc3ncsc3c2)cc1Nc1ccc(S(C)(=O)=O)cc1` [Example 382]: 6.3 nM and 491 nM.
Regarding `CC(C)(O)[C@H](F)CNC(=O)c1cnc(Nc2ccn3nccc3n2)cc1Nc1ccc(S(C)(=O)=O)cc1` [Example 383], the IC50 on IRAK4 was found to be 6.3 nM; in assay [1] (Homo sapiens, PBMC, 5 h), 194 nM.
The matching figures for `CC(C)(O)[C@H](F)CNC(=O)c1cnc(Nc2ccc3ncsc3c2)cc1NC1CCSCC1` [Example 384]: 3.5 nM and 180 nM.
`CC(C)(O)[C@H](F)CNC(=O)c1cnc(Nc2ccn3nccc3n2)cc1NC1CCSCC1` [Example 385]: the IC50 worked out at 4.3 nM on IRAK4 and 135 nM in assay [1] (Homo sapiens, PBMC, 5 h).
In the case of `CC(C)(O)[C@H](F)CNC(=O)c1cnc(Nc2ccn3nccc3n2)cc1NCC(F)F` [Example 386], the IC50 at IRAK4 worked out at 20.1 nM; in assay [1] (Homo sapiens, PBMC, 5 h) it was 516 nM.
The matching figures for `CCC(C)Nc1cc(Nc2ccn3nccc3n2)ncc1C(=O)NC[C@@H](F)C(C)(C)O` (stereo partly shown) [Example 387]: 4.3 nM and 293 nM.
In the case of `CCC(C)Nc1cc(Nc2ccn3nccc3n2)ncc1C(=O)NC[C@@H](F)C(C)(C)O` (stereo partly shown) [Example 388], the half-maximal inhibitory concentration (IC50) at IRAK4 is 6.6 nM; in assay [1], 234 nM.
On to `CCC(O)(CC)[C@H](F)CNC(=O)c1cnc(Nc2ccn3nccc3n2)cc1NCC(C)(C)F` [Example 389], for which the IC50 on IRAK4 was determined as 10.4 nM; in assay [1] (Homo sapiens, PBMC, 5 h), 574 nM.
For the compound `CC(C)(O)[C@H](F)CNC(=O)c1cnc(Nc2nc3ccnn3cc2F)cc1NC1CCC(F)(F)C1` (stereo partly shown) [Example 391], the values for the IC50 (at IRAK4; in assay [1]) were 2.5 nM and 119 nM, respectively.
For `CC(C)(O)[C@H](F)CNC(=O)c1cnc(Nc2nc3ccnn3cc2F)cc1NC1CCC(F)(F)C1` (stereo partly shown) [Example 392], the IC50 at IRAK4 came to 8 nM; in assay [1] it was 297 nM.
With `CC(C)(O)[C@H](F)CNC(=O)c1cnc(Nc2ccc3ncsc3c2)cc1NC12CCC(NC(=O)c3ccccc3)(CC1)C2` [Example 394], the IC50 at IRAK4 amounted to 10.2 nM; in assay [1] (Homo sapiens, PBMC, 5 h), 311 nM.
For `CC(C)(O)[C@H](F)CNC(=O)c1cnc(Nc2ccc3ncsc3c2)cc1NC12CCC(NC(=O)c3cccnc3)(CC1)C2` [Example 395] the same measures were 4.4 nM and 333 nM.
For `CC(C)(O)[C@H](F)CNC(=O)c1cnc(Nc2ccc3ncsc3c2)cc1NC12CCC(NS(C)(=O)=O)(CC1)C2` [Example 396], the IC50 was found to be 2.7 nM at IRAK4 and 351 nM in assay [1] (Homo sapiens, PBMC, 5 h).
The matching figures for `CCOC(=O)NC12CCC(Nc3cc(Nc4ccc5ncsc5c4)ncc3C(=O)NC[C@@H](F)C(C)(C)O)(CC1)C2` [Example 397]: 4.9 nM and 197 nM.
The matching figures for `CN(C)CC(=O)NC12CCC(Nc3cc(Nc4ccc5ncsc5c4)ncc3C(=O)NC[C@@H](F)C(C)(C)O)(CC1)C2` [Example 398]: 3.5 nM and 301 nM.
The matching figures for `CC(C)(O)[C@H](F)CNC(=O)c1cnc(Nc2ccc3ncsc3c2)cc1NC12CCC(NC(=O)c3ccncc3)(CC1)C2` [Example 399]: 3.1 nM and 203 nM.
For the compound `CC(C)(O)[C@H](F)CNC(=O)c1cnc(Nc2ccc3ncsc3c2)cc1NC12CCC(NC(=O)c3ccccn3)(CC1)C2` [Example 400], the IC50 stood at 7.5 nM on IRAK4 and 119 nM in assay [1] (Homo sapiens, PBMC, 5 h).
The matching figures for `CC(C)(O)[C@H](F)CNC(=O)c1cnc(Nc2ccc3ncsc3c2)cc1NC12CCC(NS(=O)(=O)c3ccccc3)(CC1)C2` [Example 401]: 12.6 nM and 328 nM.
In the case of `CC(C)Nc1cc(Nc2ccc3ncsc3c2)ncc1C(=O)NCCN1CCOCC1` [Example 402], the IC50 at IRAK4 is 9 nM; in assay [1] (Homo sapiens, PBMC, 5 h) it was 357 nM.
For `CCC(O)(CC)[C@H](F)CNC(=O)c1cnc(Nc2cc3scnc3cn2)cc1NC1CC1` [Example 403] the same measures were 21 nM and 1480 nM.
For the compound `CC(C)(O)[C@H](F)CNC(=O)c1cnc(Nc2ccc3ncccc3n2)cc1NC1CCCC1F` (stereo partly shown) [Example 404], the IC50 on IRAK4 was determined as 7.8 nM; in assay [1] (Homo sapiens, PBMC, 5 h) it was 1010 nM.
As for `CC(C)(O)[C@H](F)CNC(=O)c1cnc(Nc2ccc3ncccc3n2)cc1NC1CCCC1F` (stereo partly shown) [Example 405], the results for the IC50 (at IRAK4; in assay [1]) were 5.8 nM and 788 nM, respectively.
For `CC(C)(O)[C@H](F)CNC(=O)c1cnc(Nc2ccc3ncc(C#N)cc3n2)cc1NC1CCC(F)(F)C1` (stereo partly shown) [Example 406] the same measures were 11.8 nM and 1320 nM.
The matching figures for `CC(C)(O)[C@H](F)CNC(=O)c1cnc(Nc2ccc3ncc(C#N)cc3n2)cc1NC1CCC(F)(F)C1` (stereo partly shown) [Example 407]: 2.7 nM and 260 nM.
For `CC(C)(O)[C@H](F)CNC(=O)c1cnc(Nc2nc3ccnn3cc2F)cc1NC1CCC(F)C1` (stereo partly shown) [Example 408] the same measures were 1.9 nM and 209 nM.
`CC(C)(O)[C@H](F)CNC(=O)c1cnc(Nc2nc3ccnn3cc2F)cc1NC1CCC(F)C1` (stereo partly shown) [Example 409]: the values for the IC50 (on IRAK4; in assay [1]) were 3 nM and 207 nM, respectively.
For `CC(C)(O)[C@H](F)CNC(=O)c1cnc(Nc2nc3ccnn3cc2F)cc1NC1CCC(F)C1` (stereo partly shown) [Example 410] the same measures were 3.2 nM and 340 nM.
Take `CC(C)(O)[C@H](F)CNC(=O)c1cnc(Nc2ccc3ncc(C#N)cc3n2)cc1NC1CCC(F)C1` (stereo partly shown) [Example 411]: the IC50 at IRAK4 amounted to 2.4 nM; in assay [1], 92 nM.
For `CC(C)(O)[C@H](F)CNC(=O)c1cnc(Nc2ccc3ncc(C#N)cc3n2)cc1NC1CCC(F)C1` (stereo partly shown) [Example 412] the same measures were 2.6 nM and 109 nM.
On to `CC(C)(O)[C@H](F)CNC(=O)c1cnc(Nc2ccc3ncc(C#N)cc3n2)cc1NC1CCC(F)C1` (stereo partly shown) [Example 413], for which the IC50 at IRAK4 amounted to 6.3 nM; in assay [1], 226 nM.
`CC(C)Nc1cc(Nc2cnc3[nH]ccc3c2)ncc1C(=O)NC[C@@H](F)C(C)(C)O` [Example 415]: the IC50 on IRAK4 stood at 6.3 nM; in assay [1] (Homo sapiens, PBMC, 5 h) it was 502 nM.
With `CC(C)(O)[C@H](F)CNC(=O)c1cnc(Nc2ccc3ncsc3c2)cc1Nc1ncc(CO)s1` [Example 416], the IC50 at IRAK4 stood at 1.8 nM; in assay [1] (Homo sapiens, PBMC, 5 h), 255 nM.
Consider `CC(C)(O)[C@H](F)CNC(=O)c1cnc(Nc2ccc3ncsc3n2)cc1NC1CCOCC1F` (stereo partly shown) [Example 417], for which the IC50 came to 10.9 nM at IRAK4 and 72 nM in assay [1].
As for `CC(C)(O)[C@H](F)CNC(=O)c1cnc(Nc2ccc3ncsc3c2)cc1NC1C2CCCC1CCC2` (stereo partly shown) [Example 419], the IC50 on IRAK4 is 5.1 nM; in assay [1] (Homo sapiens, PBMC, 5 h), 184 nM.
For `CC(C)(O)[C@H](F)CNC(=O)c1cnc(Nc2ccn3ncc(F)c3c2)cc1NC1CC(F)(F)C1` [Example 420] the same measures were 3.6 nM and 184 nM.

The record behind these values is patent US9546153B2, “Bicyclic heterocycle substituted pyridyl compounds useful as kinase modulators” (BRISTOL-MYERS SQUIBB COMPANY, priority 2012, dated 2017).
